Test results taken from patent US9982005B2, “Macrolides and methods of their preparation and use” (President and Fellows of Harvard College, priority 2013, dated 2018).
≈ marks a conversion by molar mass, not a printed value. Like-named read-outs stand apart in the source and are kept apart here.

What was measured:
Assay type in all cases: cell-based
H. influenzae strains = assay: MIC against H. influenzae strains (Table M8); conditions: Haemophilus influenzae
Source text: (§1) We have collected MIC data for a total of 50 novel macrolides that this platform has produced against over 21 unique strains of B. subtilis, E. coli, S. aureus, S. pneumoniae, and H. influenzae, including several multidrug-resistant strains, with a special focus on macrolide resistant mechanisms (vide supra). Azithromycin was included as a control macrolide. CLSI standard procedures for broth dilution MIC determination were used. […] These genotypes can be constitutive or inducible. The finding that C4-epi (unnatural) isomers of the “azaketolide” macrolide class have enhanced activities relative to C4 natural isomers is very exciting.

S. aureus strains = assay: MIC against S. aureus strains (Table M7); conditions: Staphylococcus aureus
Source text: as §1

S. pneumoniae strains = assay: MIC against S. pneumoniae strains (Tables M7, M8); conditions: for MIC: Streptococcus pneumoniae
Source text: CLSI standard procedures for broth dilution MIC determination were used. […] These genotypes can be constitutive or inducible.

E. coli strains = assay: MIC against E. coli strains (Table M7); conditions: Escherichia coli, ATCC25922, E. coli ATCC 25922
Source text: as §1

A. baumannii strains = assay: MIC against A. baumannii strains (Table M8); conditions: Acinetobacter baumannii, BAA747, A. baumannii BAA747-1
E. faecalis strains = assay: MIC against E. faecalis strains (Table M8); conditions: Enterococcus faecalis, E. faecalis 29212
K. pneumoniae strains = assay: MIC against K. pneumoniae strains (Table M8); conditions: Klebsiella pneumoniae, K. pneumoniae 10031
[1] = H. influenzae 49247, read-out: MIC H. influenzae (49247)
[2] = H. influenzae 49766, read-out: MIC H. influenzae (49766)
[3] = ATCC29213, S. aureus ATCC 29213, read-out: MIC S. aureus (ATCC 29213)
[4] = S. aureus 183, read-out: MIC S. aureus (183)
[5] = S. aureus 506, read-out: MIC S. aureus (506)
[6] = S. aureus 1708, read-out: MIC S. aureus (1708)
[7] = USA300, S. aureus USA300, read-out: MIC S. aureus (USA300)
[8] = S. pneumoniae 160, read-out: MIC S. pneumonae (160)
[9] = S. pneumoniae 1509, read-out: MIC S. pneumoniae (1509)
[10] = S. pneumoniae 1533, read-out: MIC S. pneumoniae (1533)
[11] = S. pneumoniae 1537, read-out: MIC S. pneumoniae (1537)
[12] = S. pneumoniae 49619, read-out: MIC S. pneumoniae (49619)

SMILES | MIC (H. influenzae strains; [1]) [µg/mL] | MIC (H. influenzae strains; [2]) [µg/mL] | MIC (S. aureus strains; [3]) [µg/mL] | MIC (S. aureus strains; [4]) [µg/mL] | MIC (S. aureus strains; [5]) [µg/mL] | MIC (S. aureus strains; [6]) [µg/mL] | MIC (S. aureus strains; [7]) [µg/mL] | MIC (S. pneumoniae strains; [8]) [µg/mL] | MIC (S. pneumoniae strains; [9]) [µg/mL] | MIC (S. pneumoniae strains; [10]) [µg/mL] | MIC (S. pneumoniae strains; [11]) [µg/mL] | MIC (S. pneumoniae strains; [12]) [µg/mL] | MIC (E. coli strains) [µg/mL] | MIC (A. baumannii strains) [µg/mL] | MIC (E. faecalis strains) [µg/mL] | MIC (K. pneumoniae strains) [µg/mL] | MIC S. pneumoniae (49619) (S. pneumoniae strains; S. pneumoniae 49619) [µg/mL]
CC[C@H]1OC(=O)C(C)C(=O)[C@H](C)[C@@H](O[C@@H]2OC(C)CC(N(C)C)C2O)[C@](C)(OC/C=C/c2cnc3ccccc3c2)C[C@@H](C)CN(C)[C@H](C)[C@H]2NC(=O)O[C@@]21C (some centres unmarked) [FSM-21118] | 2 (≈ 2.56 µM) | 8 (≈ 10.2 µM) | 1 (≈ 1.28 µM) | > 32 | > 32 | 1 (≈ 1.28 µM) | 2 (≈ 2.56 µM) | ≤ 0.0625 | 1 (≈ 1.28 µM) | > 32 | 32 (≈ 41 µM) | 0.125 (≈ 0.16 µM) | 8 (≈ 10.2 µM) | 32 (≈ 41 µM) | 0.5 (≈ 0.64 µM) | 2 (≈ 2.56 µM) | 
CC[C@H]1OC(=O)[C@H](C)C(O)[C@H](C)[C@@H](O[C@@H]2OC(C)CC(N(C)C)C2O)[C@](C)(OC)C[C@@H](C)CN(C)[C@H](C)[C@H]2N(CCCCn3cc(-c4cccc(N)c4)nn3)C(=O)O[C@]12C (some centres unmarked) [FSM-21335] | 4 (≈ 4.74 µM) | 32 (≈ 37.9 µM) | > 32 | > 32 | > 32 | > 32 | 32 (≈ 37.9 µM) | 0.25 (≈ 0.296 µM) | > 32 | > 32 | > 32 | 1 (≈ 1.18 µM) | 32 (≈ 37.9 µM) | > 32 | 16 (≈ 19 µM) | 4 (≈ 4.74 µM) | 
CC[C@H]1OC(=O)[C@H](C)C(=O)[C@H](C)[C@@H](O[C@@H]2OC(C)CC(N(C)C)C2O)[C@](C)(OC)C[C@@H](C)CN(C)[C@H](C)[C@H]2N(CCCCn3cc(-c4cccc(N)c4)nn3)C(=O)O[C@]12C (some centres unmarked) [FSM-21339] | 2 (≈ 2.38 µM) | 8 (≈ 9.5 µM) | 2 (≈ 2.38 µM) | > 32 | > 32 | 4 (≈ 4.75 µM) | 2 (≈ 2.38 µM) | 0.125 (≈ 0.148 µM) | 1 (≈ 1.19 µM) | > 32 | > 32 | ≤ 0.0625 | 16 (≈ 19 µM) | 32 (≈ 38 µM) | 0.5 (≈ 0.594 µM) | 4 (≈ 4.75 µM) | 
CC[C@H]1OC(=O)[C@H](C)C(O)[C@H](C)[C@@H](O[C@@H]2OC(C)CC(N(C)C)C2O)[C@](C)(OC)C[C@@H](C)CN[C@H](C)[C@H]2N(CCCCn3cc(-c4cccc(N)c4)nn3)C(=O)O[C@]12C (some centres unmarked) [FSM-21340] | 1 (≈ 1.2 µM) | 4 (≈ 4.82 µM) | 16 (≈ 19.3 µM) | > 32 | > 32 | > 32 | 16 (≈ 19.3 µM) | 0.5 (≈ 0.602 µM) | > 32 | > 32 | > 32 | 0.5 (≈ 0.602 µM) | 4 (≈ 4.82 µM) | 8 (≈ 9.64 µM) | 8 (≈ 9.64 µM) | 2 (≈ 2.41 µM) | 
CC[C@H]1OC(=O)C(C)C(=O)[C@H](C)[C@@H](O[C@@H]2OC(C)CC(N(C)C)C2O)[C@](C)(OC)C[C@@H](C)C(=O)N[C@H](C)[C@H]2N(CCCCn3cc(-c4cccc(N)c4)nn3)C(=O)O[C@]12C (some centres unmarked) [FSM-21344] | 8 (≈ 9.5 µM) | 32 (≈ 38 µM) | > 32 | > 32 | > 32 | > 32 | > 32 | 8 (≈ 9.5 µM) | 4 (≈ 4.75 µM) | > 32 | > 32 | 0.5 (≈ 0.594 µM) | > 32 | > 32 | 16 (≈ 19 µM) | 16 (≈ 19 µM) | 
C=CC[C@@]1(OC)C[C@@H](C)CN[C@H](C)[C@H]2N(CCCCn3cc(-c4cccc(N)c4)nn3)C(=O)O[C@]2(C)[C@@H](CC)OC(=O)[C@H](C)C(=O)[C@@H](C)[C@H]1O[C@@H]1OC(C)CC(N(C)C)C1O (some centres unmarked) [FSM-21367] | 1 (≈ 1.17 µM) | 4 (≈ 4.68 µM) | 8 (≈ 9.37 µM) | > 32 | > 32 | 16 (≈ 18.7 µM) | 8 (≈ 9.37 µM) | 0.125 (≈ 0.146 µM) | 8 (≈ 9.37 µM) | > 32 | > 32 |  | 4 (≈ 4.68 µM) | 16 (≈ 18.7 µM) | 2 (≈ 2.34 µM) | 4 (≈ 4.68 µM) | 0.25 (≈ 0.293 µM)
CC[C@H]1OC(=O)[C@H](C)C(=O)[C@H](C)[C@@H](O[C@@H]2OC(C)CC(N(C)C)C2O)[C@](C)(OC)C[C@@H](C)CCN[C@H](C)[C@H]2N(CCCCn3cc(-c4cccc(N)c4)nn3)C(=O)O[C@]12C (some centres unmarked) [FSM-21397] | 2 (≈ 2.38 µM) | 4 (≈ 4.75 µM) | 2 (≈ 2.38 µM) | > 32 | > 32 | 2 (≈ 2.38 µM) | 2 (≈ 2.38 µM) | 0.25 (≈ 0.297 µM) | 4 (≈ 4.75 µM) | > 32 | > 32 | 0.125 (≈ 0.148 µM) | 16 (≈ 19 µM) | 16 (≈ 19 µM) | 0.5 (≈ 0.594 µM) | 4 (≈ 4.75 µM) | 
CC[C@H]1OC(=O)[C@H](C)C(=O)[C@H](C)[C@@H](O[C@@H]2OC(C)CC(N(C)C)C2O)[C@](CCO)(OC)C[C@@H](C)CN[C@H](C)[C@H]2N(CCCCn3cc(-c4cccc(N)c4)nn3)C(=O)O[C@]12C (some centres unmarked) [FSM-21422] | 8 (≈ 9.32 µM) | 16 (≈ 18.6 µM) | > 32 | > 32 | > 32 | > 32 | > 32 | 4 (≈ 4.66 µM) | > 32 | > 32 | > 32 | 1 (≈ 1.17 µM) | 32 (≈ 37.3 µM) | > 32 | 16 (≈ 18.6 µM) | 8 (≈ 9.32 µM) | 
